The values below come from patent publication US6610712B2, “Aryloxy piperidinyl derivatives for the treatment of depression” (Wyeth, priority 2000, dated 2003).

Structures can show the parent of a compound that is named as a salt.

One series has as its target T1, 5-HT1A (Homo sapiens, UniProt P08908).
T1 sequence (P08908 1-422): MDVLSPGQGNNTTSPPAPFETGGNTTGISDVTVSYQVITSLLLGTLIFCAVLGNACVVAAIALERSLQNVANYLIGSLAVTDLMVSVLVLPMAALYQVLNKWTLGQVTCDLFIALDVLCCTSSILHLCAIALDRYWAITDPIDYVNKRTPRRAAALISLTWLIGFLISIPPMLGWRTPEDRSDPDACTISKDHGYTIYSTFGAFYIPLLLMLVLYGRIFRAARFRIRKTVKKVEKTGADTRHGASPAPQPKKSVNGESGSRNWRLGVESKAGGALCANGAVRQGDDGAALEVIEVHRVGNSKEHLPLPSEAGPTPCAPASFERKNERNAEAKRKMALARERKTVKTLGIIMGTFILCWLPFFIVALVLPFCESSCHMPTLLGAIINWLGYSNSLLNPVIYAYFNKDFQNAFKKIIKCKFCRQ
Kind of series: 5-HT1A receptor binding, [3H]DPAT. The following applies: radioligand [3H]DPAT. Details: 5-HT1A [3H]DPAT, % at single concentration: dose or concentration left out as unconfirmed.

The target in another series is Serotonin Transporter (Homo sapiens, UniProt P31645). Description: Serotonin transporter binding, [3H]paroxetine. The settings on record: radioligand [3H]paroxetine.
Sequence of Serotonin Transporter (P31645 whole entry): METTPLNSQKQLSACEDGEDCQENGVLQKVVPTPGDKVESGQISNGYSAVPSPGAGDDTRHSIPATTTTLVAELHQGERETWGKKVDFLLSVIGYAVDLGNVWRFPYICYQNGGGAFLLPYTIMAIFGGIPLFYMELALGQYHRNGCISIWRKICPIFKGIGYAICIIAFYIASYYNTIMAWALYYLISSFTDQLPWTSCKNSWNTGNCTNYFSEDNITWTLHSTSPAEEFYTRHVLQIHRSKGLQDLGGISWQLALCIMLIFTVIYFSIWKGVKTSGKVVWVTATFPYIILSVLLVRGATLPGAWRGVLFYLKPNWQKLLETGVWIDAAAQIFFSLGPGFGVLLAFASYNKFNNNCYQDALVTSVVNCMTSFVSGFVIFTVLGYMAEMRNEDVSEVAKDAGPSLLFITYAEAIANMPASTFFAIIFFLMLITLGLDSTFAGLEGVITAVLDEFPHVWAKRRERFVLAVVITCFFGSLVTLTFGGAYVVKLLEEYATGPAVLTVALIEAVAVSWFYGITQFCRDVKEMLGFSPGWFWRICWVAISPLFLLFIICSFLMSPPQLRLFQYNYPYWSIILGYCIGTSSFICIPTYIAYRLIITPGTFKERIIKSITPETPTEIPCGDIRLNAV

For the compound “6-Fluoro-3-{1-[2-(2,3-dihydro-benzo[1,4]dioxan-5-yloxy)-ethyl]-1,2,3,6-tetrahydro-pyridin-4-yl}-1H-indole [Example 6]”, the Ki on 5-HT1A is 83.7 nM; at Serotonin Transporter, 0.15 nM. In the case of `Fc1ccc2[nH]cc(CC3CCN(CCOc4cccc5c4OCCO5)CC3)c2c1` (as salt: fumarate) (hydrate or solvate) [Example 2, 5-Fluoro-3-{1-[2-(2,3-dihydrobenzo[1,4]dioxin-5-yloxy)ethyl]-piperidin-4-ylmethyl}-1H-indole], the melting point fell in the range of 157 to 159 °C. Same read-out and setting: in the case of `Fc1ccc2[nH]cc(CC3CCN(CCOc4ccc5c(c4)CCC5)CC3)c2c1` (as salt: hydrochloride) (hydrate or solvate) [Example 3, 5-Fluoro-3-{1-[2-(indan-5-yloxy)-ethyl]-piperidin-4-ylmethyl}-1H-indole] it was 150 to 152 °C; in that of `COc1ccccc1OCCN1CCC(Cc2c[nH]c3ccc(F)cc23)CC1` (as salt: oxalate) (hydrate or solvate) [Example 1, 5-Fluoro-3-{1-[2-(2-methoxyphenoxy)ethyl]-piperidin-4-ylmethyl}-1H-indole], 91 °C; in that of `C1=C(c2c[nH]c3ccccc23)CCN(CCOc2cccc3c2OCCO3)C1` (as salt: oxalate) [Example 4, 3-{1-[2-(2,3-Dihydro-benzo[1,4]dioxan-5-yloxy)-ethyl]-1,2,3,6-tetrahydro-pyridin-4-yl}-1H-indole], 85 to 88 °C. On the same count and under the same terms, in the case of `Fc1ccc2[nH]cc(C3=CCN(CCOc4cccc5c4OCCO5)CC3)c2c1` (as salt: oxalate) [Example 5, 5-Fluoro-3-{1-[2-(2,3-dihydro-benzo[1,4]dioxan-5-yloxy)-ethyl]-1,2,3,6-tetrahydro-pyridin-4-yl}-1H-indole] it was 195 to 198 °C. Consider `COc1ccccc1OCCN1CCC(Cc2c[nH]c3ccc(F)cc23)CC1` [Example 1, 5-Fluoro-3-{1-[2-(2-methoxyphenoxy)ethyl]-piperidin-4-ylmethyl}-1H-indole], for which the inhibition constant (Ki) at 5-HT1A came out at 180 nM; on Serotonin Transporter it was 0.35 nM.

As to `Fc1ccc2[nH]cc(CC3CCN(CCOc4cccc5c4OCCO5)CC3)c2c1` [Example 2, 5-Fluoro-3-{1-[2-(2,3-dihydrobenzo[1,4]dioxin-5-yloxy)ethyl]-piperidin-4-ylmethyl}-1H-indole], the Ki at 5-HT1A turned out to be 168 nM; on Serotonin Transporter it was 0.011 nM. In the case of `Fc1ccc2[nH]cc(CC3CCN(CCOc4ccc5c(c4)CCC5)CC3)c2c1` [Example 3, 5-Fluoro-3-{1-[2-(indan-5-yloxy)-ethyl]-piperidin-4-ylmethyl}-1H-indole], the “5-HT1A [3H]DPAT, % at single concentration” value at 5-HT1A is 0% @ 0.1 M. Further, at Serotonin Transporter, the Ki came to 2.24 nM.

Take `C1=C(c2c[nH]c3ccccc23)CCN(CCOc2cccc3c2OCCO3)C1` [Example 4, 3-{1-[2-(2,3-Dihydro-benzo[1,4]dioxan-5-yloxy)-ethyl]-1,2,3,6-tetrahydro-pyridin-4-yl}-1H-indole]: the inhibition constant Ki came out at 78.3 nM on 5-HT1A and 0.17 nM on Serotonin Transporter. Taken in the same sequence, the figures for `Fc1ccc2[nH]cc(C3=CCN(CCOc4cccc5c4OCCO5)CC3)c2c1` [Example 5, 5-Fluoro-3-{1-[2-(2,3-dihydro-benzo[1,4]dioxan-5-yloxy)-ethyl]-1,2,3,6-tetrahydro-pyridin-4-yl}-1H-indole] were 83.3 nM and 1.17 nM.
